Assays:
Assay type in all cases: cell-based
SRD5A3 [1] = biological target: T1, SRD5A3 (Homo sapiens, UniProt Q9H8P0); assay: Western blot assay in HepG2 cells: SRD5A3; conditions: different concentrations at 24 h (FIG. 10)
T1 construct: The downregulation of SRD5A3 and GSPT1 (eRF3a) proteins in PC-3 and HepG2 cells by C59; endogenous in cells; host or cells: 22Rv1, PC-3, HepG2
T1 sequence (Q9H8P0 1-318): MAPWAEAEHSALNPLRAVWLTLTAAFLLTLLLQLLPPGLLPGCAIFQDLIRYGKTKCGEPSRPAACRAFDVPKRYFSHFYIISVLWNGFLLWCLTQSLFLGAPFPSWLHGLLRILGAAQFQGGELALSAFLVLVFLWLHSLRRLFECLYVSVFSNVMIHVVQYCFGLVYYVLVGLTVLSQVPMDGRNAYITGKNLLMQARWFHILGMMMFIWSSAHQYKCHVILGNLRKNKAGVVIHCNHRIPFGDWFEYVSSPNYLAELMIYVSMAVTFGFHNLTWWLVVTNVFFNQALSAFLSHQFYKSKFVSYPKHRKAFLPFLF
Source text: (§1) Example 84: Western Blot Assay of Compound C59 in 22Rv1, PC-3, and HepG2 Cells
(§2) (1) Materials: 22Rv1, PC-3, and HepG2 cell, anti-SRD5A1 antibody (ab167606), anti-SRD5A2 antibody (ab124877), anti-SRD5A3 antibody (PA5-107029), anti-androgen receptor (AR) antibody (CST, No. 5153), anti-GSPT1 antibody (Abcam, ab234433), anti-GADPH antibody (CST, No. 5174), anti-c-Myc antibody (CST, No. 8583), anti-α-tublin antibody (CST, No. 2125), anti-rabbit IgG, HRP-linked antibody (CST, No. 7074), electrophoresis device and membrane transfer device (LIUYI, BEIJING; DYCZ-24DN)
(§3) Cell seeding: 22Rv1 (Cell Bank of the Chinese Academy of Sciences, TCHu100), PC-3 (Cell Bank of the Chinese Academy of Sciences, SCSP-532) and HepG2 cells (Cell Bank of the Chinese Academy of Sciences, TCHu72) were subcultured and trypsinized to prepare 6×10^5 cells/mL suspensions, seeded on 6-well plates (3 mL/well), and cultured overnight in a cell incubator at 5% CO2 and 37° C. […]
(§4) Protein quantification: The protein was quantified using a BCA protein quantification kit. […]
(§5) Western immunoblot assay (or Western blot, WB): SDS-PAGE gel at a proper concentration was prepared according to the molecular weight of the target protein: for example, the concentration of the separation gel was 8% and the concentration of the stacking gel was 5%. The loading volume was adjusted according to the protein quantification results. […]

SRD5A3 [2] = biological target: T1, SRD5A3; assay: Western blot assay in 22Rv1 cells: SRD5A3; conditions: different concentrations at 24 h, and 3 nM at different time points (FIGS. 7 and 8)
Source text: as §1, §2, §3, §4, §5

PC-3 cells = assay: Anti-proliferative toxicity of C63 in tumor cell lines (CCK8): PC-3; conditions: Homo sapiens, 72 h, 3 days, read-out: Inhibition rate
Method: (§6) Example 83: Detection of Anti-Proliferative Toxicity of C63 in Some Tumor Cell Lines
PC-3 cells (purchased from the Cell Bank of the Chinese Academy of Sciences, Cat. No. SCSP-532) were subcultured in a culture medium (F12K medium+1% penicillin-streptomycin dual-antibiotic solution+10% fetal bovine serum) in an incubator at […] and 37° C.
PC-3 cells were seeded at 4000 cells/well (90 μL) on a 96-well plate and cultured for 24 h.
(§7) 10 mM compound stock solutions were prepared in DMSO.
(§8) The compound stock solution was diluted with DMSO to give DMSO solutions 1-9 at concentrations of 0 μM, 2500 μM, 500 μM, 100 μM, 20 μM, 4 μM, 0.8 μM, 0.16 μM, and 0.032 μM.
(§9) 2 μL of each of solutions 1-9 was added to 98 μL of the medium to give mixed solutions 11-19 of the compound and the medium.
(§10) 10 μL of each of solutions 11-19 was added to the above cell seed solution to give a total volume of 100 μL (90 μL+10 μL).
(§11) The concentrations of the compound in the wells were 0 μM, 5.0 μM, 1.0 μM, 0.2 μM, 0.04 μM, 0.008 μM, 0.0016 μM, 0.00032 μM, and 0.000064 μM. All concentrations were in triplicate.
(§12) After the above-treated cells were cultured for 3 days, 10 μL of the CCK8 solution (DOJINDO, Cat. No. PF725) was added to each well. The plate was incubated in an incubator at 37° C. for 1-4 h and then detected on a microplate reader for the reading at 450 nm.

HGC-27 cells = assay: Anti-proliferative toxicity of C63 in tumor cell lines (CCK8): HGC-27; conditions: Homo sapiens, 72 h, 3 days, read-out: Inhibition rate
Method: as §6
HGC-27 cells (purchased from the Cell Bank of the Chinese Academy of Sciences, Cat. No. TCHu22) were subcultured in a culture medium (RPMI-1640 medium+1% penicillin-streptomycin dual-antibiotic solution++20% fetal bovine serum) in an incubator at 5% carbon dioxide and 37° C.
HGC-27 cells were seeded at 3000 cells/well (90 μL) on a 96-well plate and cultured for 24 h.
as §7, §8, §9, §10, §11, §12

downregulation of SRD5A3 protein (Western blot) (SRD5A3 [1])	downregulation of SRD5A3 protein (Western blot) (SRD5A3 [2])	SMILES	inhibition at 64 pM (PC-3 cells; 0.000064 μM) [%]	inhibition at 0.00032 µM (PC-3 cells; 0.000320 μM) [%]	inhibition at 0.0016 µM (PC-3 cells; 0.001600 μM) [%]	inhibition at 0.008 µM (PC-3 cells; 0.008000 μM) [%]	inhibition at 0.04 µM (PC-3 cells; 0.040000 μM) [%]	inhibition at 0.2 µM (PC-3 cells; 0.200000 μM) [%]	inhibition at 1 µM (PC-3 cells; 1.000000 μM) [%]	inhibition at 5 µM (PC-3 cells; 5.000000 μM) [%]	inhibition at 64 pM (HGC-27 cells; 0.000064 μM) [%]	inhibition at 0.00032 µM (HGC-27 cells; 0.000320 μM) [%]	inhibition at 0.0016 µM (HGC-27 cells; 0.001600 μM) [%]	inhibition at 0.008 µM (HGC-27 cells; 0.008000 μM) [%]	inhibition at 0.04 µM (HGC-27 cells; 0.040000 μM) [%]	inhibition at 0.2 µM (HGC-27 cells; 0.200000 μM) [%]	inhibition at 1 µM (HGC-27 cells; 1.000000 μM) [%]	inhibition at 5 µM (HGC-27 cells; 5.000000 μM) [%]
downregulation	downregulation	C[C@]12C=CC(=O)N[C@@H]1CC[C@@H]1[C@@H]2CC[C@]2(C)[C@@H](C(=O)Nc3cccc(N[C@@H]4CCC[C@@H](Nc5cccc6c5C(=O)N(C5CCC(=O)NC5=O)C6=O)C4)c3)CC[C@@H]12 (stereo partly drawn) [C59, N-(3-(N—(N-(4-(2-(3-(2,6-dioxopiperidine))-isoindole-1,3-dione))-1R,3R-cyclohexanediamine))phenyl)-3-oxo-4-aza-5α-androst-1-ene-17β-carboxamide]																
		C[C@]12C=CC(=O)N[C@@H]1CC[C@@H]1[C@@H]2CC[C@]2(C)[C@@H](C(=O)Nc3cccc(N[C@@H]4CCC[C@@H](Nc5cccc6c5C(=O)N([C@H]5CCC(=O)NC5=O)C6=O)C4)c3)CC[C@@H]12 [C63, N-(3-(N—(N-(4-(2-(3S-(2,6-dioxopiperidine))-isoindole-1,3-dione))-1R,3R-cyclohexanediamine))phenyl)-3-oxo-4-aza-5α-androst-1-ene-17β-carboxamide]	45.1	65.1	78.8	82.8	80.2	78.4	78.4	82.1	7.74	9.52	80	94.2	97.1	98.3	98.2	97.7

— patent US20250213701A1, “MEDICAMENT FOR TREATING HUMAN TUMOR BASED ON ERF3A-TARGETING PROTEOLYSIS MECHANISM” (SUZHOU DEGEN BIO-MEDICAL CO., LTD., priority 2022, published 2025)
